According to patent US9434711B2 (Janssen Pharmaceutica, NV, priority 2007, dated 2016):

Molecular target: canine TRPM8 (Canis lupus familiaris, UniProt Q1A7N1)
Test: In Vitro Canine TRPM8 Functional Assay (Ca2+ fluorescence, icilin activation)
Type: cell-based
Details: for inhibition at 0.2 µM / % Inh @ 0.2 (μM): compound at 0.2 μM, canine TRPM8, icilin activation; for inhibition at 0.2 µM: read-out: % Inh @ 0.2; for IC50: HEK293 cells stably expressing canine TRPM8, icilin activation, eight-point dose-response, read-out: IC50
Procedure, shortened: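 HEK293 cells stably expressing canine TRPM8 loaded with Calcium 3 dye; compound added and Ca2+ fluorescence monitored 5 min before icilin at a final level giving ~80% maximal response, read on FLIPR or FDSS. EC50 or IC50 from eight-point dose-response, quadruplicate wells per point.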

canine TRPM8, sequence (Q1A7N1 1-1104): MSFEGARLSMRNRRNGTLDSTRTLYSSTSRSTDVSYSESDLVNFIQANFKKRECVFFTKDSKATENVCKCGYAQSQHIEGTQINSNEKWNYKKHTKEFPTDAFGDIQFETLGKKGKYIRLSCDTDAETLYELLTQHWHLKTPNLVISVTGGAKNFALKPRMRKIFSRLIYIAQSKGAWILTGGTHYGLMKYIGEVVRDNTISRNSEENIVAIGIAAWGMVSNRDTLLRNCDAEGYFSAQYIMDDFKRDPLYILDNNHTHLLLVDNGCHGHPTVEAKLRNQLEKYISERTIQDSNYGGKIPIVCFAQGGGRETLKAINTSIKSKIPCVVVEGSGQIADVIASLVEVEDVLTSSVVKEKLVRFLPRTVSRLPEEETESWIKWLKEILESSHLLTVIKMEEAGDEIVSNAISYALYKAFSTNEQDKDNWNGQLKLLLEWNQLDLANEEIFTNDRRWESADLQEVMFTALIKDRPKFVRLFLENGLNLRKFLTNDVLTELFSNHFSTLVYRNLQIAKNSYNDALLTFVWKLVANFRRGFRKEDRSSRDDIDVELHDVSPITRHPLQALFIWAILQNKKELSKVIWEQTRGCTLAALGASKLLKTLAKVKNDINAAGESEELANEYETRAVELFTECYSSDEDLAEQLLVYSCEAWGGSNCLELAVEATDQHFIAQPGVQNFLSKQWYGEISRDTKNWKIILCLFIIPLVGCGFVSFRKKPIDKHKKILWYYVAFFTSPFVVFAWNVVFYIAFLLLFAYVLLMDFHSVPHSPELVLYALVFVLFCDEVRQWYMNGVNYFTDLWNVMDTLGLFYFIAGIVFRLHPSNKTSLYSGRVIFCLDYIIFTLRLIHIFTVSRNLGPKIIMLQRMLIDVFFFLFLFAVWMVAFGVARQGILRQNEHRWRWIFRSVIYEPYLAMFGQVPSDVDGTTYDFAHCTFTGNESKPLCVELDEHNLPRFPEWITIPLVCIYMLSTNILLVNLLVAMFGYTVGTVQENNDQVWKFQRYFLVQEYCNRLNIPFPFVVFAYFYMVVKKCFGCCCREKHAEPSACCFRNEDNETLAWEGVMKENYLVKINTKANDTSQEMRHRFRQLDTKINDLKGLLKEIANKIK

SMILES	inhibition at 0.2 µM	IC50	% Inh @ 0.2 (μM)
Cc1c(N(Cc2cc(Cl)ccc2Cl)S(=O)(=O)c2ccc(C(=O)O)cc2)sc2ccccc12 [Compound 520, N-(3-Methyl-benzo[b]thiophen-2-yl)-N-(2,5-dichloro-benzyl)-4-carboxy-benzenesulfonamide]	102%	–	–
Cc1c(N(Cc2ccc3c(c2)OCO3)S(=O)(=O)c2ccc(C(=O)O)cc2)sc2ccccc12 [Compound 523, N-(3-Methyl-benzo[b]thiophen-2-yl)-N—(C-benzo[1,3]dioxol-5-yl-methy)-4-carboxy-benzenesulfonamide]	–	2 nM	101%
COc1ccc(CN(c2sc3ccccc3c2C)S(=O)(=O)c2ccc(C(=O)O)cc2)cc1OC [Compound 525, N-(3-Methyl-benzo[b]thiophen-2-yl)-N-(3,4-dimethoxy-benzyl)-4-carboxy-benzenesulfonamide]	101%	–	–
COC(=O)c1ccc(S(=O)(=O)N(CCCC(F)(F)F)c2sc3ccccc3c2Cl)cc1 [Compound 530, N-(3-Chloro-benzo[b]thiophen-2-yl)-N-(4,4,4-trifluoro-butyl)-4-carbomethoxy-benzenesulfonamide]	54%	–	–
COC(=O)c1ccc(S(=O)(=O)N(CCCCC(F)(F)F)c2sc3ccccc3c2Cl)cc1 [Compound 531, N-(3-Chloro-benzo[b]thiophen-2-yl)-N-(5,5,5-trifluoro-pentyl)-4-carbomethoxy-benzenesulfonamide]	88%	46 nM	–
CCCCN(c1cc2ccccc2s1)S(=O)(=O)NC [Compound 532, N-(Benzo[b]thiophen-2-yl)-N-(butyl)-N′-methyl-sulfamide]	19%	–	–
CCS(=O)(=O)N(Cc1ccc(F)c(C(F)(F)F)c1)c1sc2ccccc2c1[C@H](C)O [Compound 534]	–	2 nM	102%
CCS(=O)(=O)N(Cc1ccc(F)c(C(F)(F)F)c1)c1sc2ccccc2c1[C@@H](C)O [Compound 535]	–	1 nM	102%
CCCCN(C1=C(N(C)C)c2ccccc2S1(=O)=O)S(=O)(=O)c1ccc(C(=O)O)cc1 [Compound 536, N-(Butyl)-N-(3-dimethylamino-1,1-dioxo-1H-benzo[b]thiophen-2-yl)-4-carboxy-benzenesulfonamide]	89%	77 nM	–
O=C(O)c1ccc(S(=O)(=O)N(CCCC(F)(F)F)c2sc3ccccc3c2Cl)cc1 [Compound 537, N-(3-Chloro-benzo[b]thiophen-2-yl)-N-(4,4,4-trifluoro-butyl)-4-carboxy-benzenesulfonamide]	105%	8.2 nM	–
O=C(O)c1ccc(S(=O)(=O)N(CCCCC(F)(F)F)c2sc3ccccc3c2Cl)cc1 [Compound 538, N-(3-Chloro-benzo[b]thiophen-2-yl)-N-(5,5,5-trifluoro-pentyl)-4-carboxy-benzenesulfonamide]	105%	4.9 nM	–
CCCCN(c1sc2ccccc2c1C)S(=O)(=O)c1ccc(C2=NOS(=O)N2)cc1 (stereo not drawn) [Compound 540, N-(3-Methyl-benzo[b]thiophen-2-yl)-N-(butyl)-4-(3H-[1,2,3,5]oxathiadiazole-2-oxide)-benzenesulfonamide]	–	12.2 nM	104.6%
CCCCN(c1sc2ccccc2c1C)S(=O)(=O)c1ccc(-c2noc(=O)[nH]2)cc1 [Compound 541, N-(3-Methyl-benzo[b]thiophen-2-yl)-N-(butyl)-4-(5-oxo-4,5-dihydro-[1,2,4]oxadiazol-3-yl)-benzenesulfonamide]	105%	10.8 nM	–
Cc1c(N(Cc2ccc(F)c(C(F)(F)F)c2)S(=O)(=O)c2ccc(C3=NOS(=O)N3)cc2)sc2ccccc12 (stereo not drawn) [Compound 543, N-(3-Methyl-benzo[b]thiophen-2-yl)-N-(4-fluoro-3-trifluoromethyl-benzyl)-4-(3H-[1,2,3,5]oxathiadiazole-2-oxide)-benzenesulfonamide]	–	7.2 nM	104.46%
Cc1c(N(CCCCC(F)(F)F)S(=O)(=O)c2ccc(C(=O)[O-])cc2)sc2ccccc12.[Na+] [Compound 545, Sodium, N-(3-Methylbenzo[b]thiophen-2-yl)-N-(5,5,5-trifluoro-pentyl)-4-carboxy-benzenesulfonamide]	–	1.9 nM	104.78%
CC(C)c1c(N(CCC2CC2)S(=O)(=O)c2ccccc2)sc2ccccc12 [Compound 548, N-(2-Cyclopropyl-ethyl)-N-(3-isopropyl-benzo[b]thiophen-2-yl)-benzenesulfonamide]	102%	28.9 nM	–
Cc1c(N(CCC2CC2)S(=O)(=O)c2cccc(C#N)c2)sc2ccccc12 [Compound 549, N-(2-Cyclopropyl-ethyl)-N-(3-methyl-benzo[b]thiophen-2-yl)-3-cyano-benzenesulfonamide]	104%	15.9 nM	–
Cc1c(N(CCC(F)(F)F)S(=O)(=O)c2cccc(C#N)c2)sc2ccccc12 [Compound 550, N-(3-Methyl-benzo[b]thiophen-2-yl)-N-(3,3,3-trifluoro-propyl)-3-cyano-benzenesulfonamide]	104%	18.8 nM	–
Cc1c(N(CCCC(F)(F)F)S(=O)(=O)c2cccc(C#N)c2)sc2ccccc12 [Compound 551, N-(3-Methyl-benzo[b]thiophen-2-yl)-N-(4,4,4-trifluoro-butyl)-3-cyano-benzenesulfonamide]	94.4%	88.6 nM	–
Cc1c(N(CCCCC(F)(F)F)S(=O)(=O)c2cccc(C#N)c2)sc2ccccc12 [Compound 552, N-(3-Methyl-benzo[b]thiophen-2-yl)-N-(5,5,5-trifluoro-pentyl)-3-cyano-benzenesulfonamide]	101%	25.1 nM	–
CCCCN(c1sc2ccccc2c1Cl)S(=O)(=O)NC [Compound 553, N-(3-Chloro-benzo[b]thiophen-2-yl)-N-(butyl)-N′-methyl-sulfamide]	38.7%	–	–

Further lines, with some results ahead:

inhibition at 0.2 µM	IC50	SMILES	% Inh @ 0.2 (μM)
101%	2 nM	Cc1c(N(Cc2ccc(Cl)c(F)c2)S(=O)(=O)c2ccc(C(=O)O)cc2)sc2ccccc12 [Compound 521, N-(3-Methyl-benzo[b]thiophen-2-yl)-N-(4-chloro-3-fluoro-benzyl)-4-carboxy-benzenesulfonamide]	–
101%	4 nM	Cc1c(N(Cc2ccc(F)cc2C(F)(F)F)S(=O)(=O)c2ccc(C(=O)O)cc2)sc2ccccc12 [Compound 522, N-(3-Methyl-benzo[b]thiophen-2-yl)-N-(4-fluoro-2-trifluoromethyl-benzyl)-4-carboxy-benzenesulfonamide]	–
102%	1 nM	Cc1c(N(Cc2ccc(SC(F)(F)F)cc2)S(=O)(=O)c2ccc(C(=O)O)cc2)sc2ccccc12 [Compound 526, N-(3-Methyl-benzo[b]thiophen-2-yl)-N-(4-trifluoromethylsulfanyl-benzyl)-4-carboxy-benzenesulfonamide]	–
101%	5 nM	Cc1c(N(Cc2ccc(F)c(C(F)(F)F)c2)S(=O)(=O)c2cc(C(=O)O)cs2)sc2ccccc12 [Compound 527, N-(3-Methyl-benzo[b]thiophen-2-yl)-N-(4-fluoro-3-trifluoromethyl-benzyl)-4-carboxy-thien-2-ylsulfonamide]	–
102%	16 nM	Cc1cc(C(=O)O)sc1S(=O)(=O)N(Cc1ccc(F)c(C(F)(F)F)c1)c1sc2ccccc2c1C [Compound 528, N-(3-Methyl-benzo[b]thiophen-2-yl)-N-(4-fluoro-3-trifluoromethyl-benzyl)-(5-carboxy-3-methyl-thien-2-yl)-sulfonamide]	–
35%	–	Cc1c(N(Cc2ccc(F)c(C(F)(F)F)c2)S(=O)(=O)c2ccc(C(=O)O)o2)sc2ccccc12 [Compound 529, N-(3-Methyl-benzo[b]thiophen-2-yl)-N-(4-fluoro-3-trifluoromethyl-benzyl)-5-carboxy-furan-2-yl-sulfonamide]	–
102%	32 nM	CNS(=O)(=O)N(Cc1ccc(F)c(C(F)(F)F)c1)c1sc2ccccc2c1C [Compound 533, N-(4-Fluoro-3-trifluoromethyl-benzyl)-N-(3-methylbenzo[b]thiophen-2-yl)-N′-methyl-sulfamide]	–
105%	6.7 nM	CCCCN(c1sc2ccccc2c1C)S(=O)(=O)c1ccc(-c2nnn[nH]2)cc1 [Compound 539, N-(3-Methyl-benzo[b]thiophen-2-yl)-N-(butyl)-4-(1H-tetrazol-5-yl)-benzenesulfonamide]	–
105%	2.3 nM	Cc1c(N(Cc2ccc(F)c(C(F)(F)F)c2)S(=O)(=O)c2ccc(-c3nnn[nH]3)cc2)sc2ccccc12 [Compound 542, N-(3-Methyl-benzo[b]thiophen-2-yl)-N-(4-fluoro-3-trifluoromethyl-benzyl)-4-(1H-tetrazol-5-yl)-benzenesulfonamide]	–
105%	1.8 nM	Cc1c(N(Cc2ccc(F)c(C(F)(F)F)c2)S(=O)(=O)c2ccc(-c3noc(=O)[nH]3)cc2)sc2ccccc12 [Compound 544, N-(3-Methyl-benzo[b]thiophen-2-yl)-N-(4-fluoro-3-trifluoromethyl-benzyl)-4-(5-oxo-4,5-dihydro-[1,2,4]oxadiazol-3-yl)-benzenesulfonamide]	–
85.7%	68.3 nM	Cc1c(N(Cc2ccc(F)c(C(F)(F)F)c2)S(=O)(=O)c2cccc(C#N)c2)sc2ccccc12 [Compound 546, N-(4-Fluoro-3-trifluoromethyl-benzyl)-N-(3-methyl-benzo[b]thiophen-2-yl)-3-cyano-benzenesulfonamide]	–
105%	7.4 nM	CC(C)c1c(N(Cc2ccc(F)c(C(F)(F)F)c2)S(=O)(=O)c2ccccc2)sc2ccccc12 [Compound 547, N-(4-Fluoro-3-trifluoromethyl-benzyl)-N-(3-isopropyl-benzo[b]thiophen-2-yl)-benzenesulfonamide]	–
